One data set in a line: Lipophilicity. The format is physicochemical.
Data set [1] in a line: Metabolite profiling of pooled whole blood, urine and faeces by LC radiochromatograms with AMS. The format is in vivo, human. The procedure:
For metabolite profiling in whole blood, urine, and faeces, LC-MS/MS followed by AMS was used. The HPLC system included a 1290 Infinity Sampler, Binary Pump, and thermostat (Agilent, UK). The chromatographic method used an aqueous formic acid (MPA)/ammonium acetate:acetonitrile:methanol (MPB) gradient and a Scherzo SS-C18 HPLC column at a temperature of 40 °C with injection volumes of 50–200 microliters. The gradient was set at 90% MAP and 10% MPB. The mass spectrometer was a Q-Exactive system (Thermo Fisher Scientific, UK) and the AMS a single stage NEC SSAMS-250.
Single whole blood, faeces, and urine pools were created across subjects and radioactive regions representing 10% or more of the circulating radioactivity were analysed (e.g. 10% or more of the circulating radioactivity in whole blood or accounting for 10% or more of the administered radioactivity/dose in urine and faeces), To create the pool, an individual subject AUC pool was prepared, and a constant proportion of each subject pool was taken to create one cross-subject pool. The whole blood sample pool included samples from hours 0–144, the urine sample pool included samples from hours 0–48, and the faeces pool from hours 0–192.
Whole blood, faeces, and urine radiochromatograms were generated for each sample by collecting HPLC fractions at intervals of 2 (30 s) or 4 (15 s) per minute over the run time of 110 min.
Radiochromatograms were generated from AMS data using the LAURA V6 software (LabLogic, Sheffield, UK). Regions of interest were quantified and provisionally identified where possible by assignment of observed peaks in each radiochromatogram to either parent zalunfiban or M1 by retention time matching, with corresponding ^12C-reference standards obtained via LC-UV.
Assignment of parent and metabolites was made by matching retention times with synthesised standards at wavelengths of 210, 230, 254, 270, and 300 nm, using liquid chromatography ultraviolet chromatography (LC-UV).
For extraction of ^14C-zalunfiban from whole blood, weighed aliquots in microcentrifuge tubes were processed with vortex mixing and centrifugation. The supernatant was then harvested and the process repeated with the bullet material in the original tube using acetonitrile and then methanol. The combined aliquots then underwent AMS analysis to determine the extraction recovery. Once optimised, the final combined supernatant was dried under N2 gas at 40 °C and reconstituted with 1 mL methanol:water (20:80, v/v), with vortex mixing and sonication. This was followed by analysis by LC. The radioactivity extraction recovery for whole blood (AUC0–144h) was 54.5%,
For extraction of ^14C-zalunfiban from homogenised faeces, weighed aliquots in microcentrifuge tubes were processed with vortex mixing and centrifugation, and then diluted with acetonitrile, followed by additional mixing, centrifugation, and repeat extraction with methanol:water until optimised. Once optimised, the final combined supernatant was dried under N2 gas at 40 °C and reconstituted with methanol, followed by water, followed by vortex mixing, followed by analysis by LC. The radioactivity extraction recovery for faeces (0–192 h) was 100%.
Urine was not subjected to extraction. An aliquot was dispensed into an LC vial prior to analysis.

The next data set can be described thus: Water solubility. It is filed as physicochemical.
The next data set has as its system platelet aggregation. In words: In vitro inhibition of ADP-induced platelet aggregation in platelet-rich plasma. The format is cell-based, human. As for the experimental part:
Ten mL of whole blood was collected from healthy human donors via venipuncture and treated with an anticoagulant (D-phenylalanyl-prolyl-arginyl chloromethyl ketone). From this, platelet-rich plasma (PRP) was prepared by centrifuging whole blood at room temperature at 650 × g for 4 min. PRP was removed and standardised to a uniform platelet concentration of 3.0 × 10^5/μL, using platelet poor plasma as a diluent, where necessary. […] Platelet aggregation was measured using an aggregometer (PAP-8E C/N 106075; Bio/Data Corp, Horsham PA). For M1 a range of concentrations was tested to produce a single fitted curve, and the Levenberg-Marquardt approach was used to calculate IC50 values.

“And” between values parts separate entries of the source, which are not always exact repeats. Identical values can stand only once.

In general, solubility refers to how much of the substance goes into solution per volume. Read a high solubility as a readily soluble substance. Broadly, the IC50 is the concentration that inhibits the measured activity by half. A higher IC50 goes with weaker potency in that assay. Consider `Nc1cncc(-c2nn3c(=O)cc(N4CCNCC4)nc3s2)c1` [M1, des-gly-zalunfiban], for which the “Lipophilicity compared with zalunfiban” value in the data set “Lipophilicity” is “more lipophilic than zalunfiban”. For the same molecule, in data set [1] (0–48 h), the “Percentage of dose excreted in urine” value was 52.98% and 53.0%. Also, the “Percentage of total radioactivity in urine” value in data set [1] (0–48 h cross-participant pooled sample) turned out to be 64.1%. Besides, the “Percentage of dose excreted in faeces” value in data set [1] (0–192 h) was determined as 2.87%. Moreover, the “Percentage of total radioactivity in faeces” value in data set [1] (0–192 h pooled sample) turned out to be 20.8%. In addition, the “Percentage of total circulating radioactivity in whole blood” value in data set [1] (AUC0–144 cross-pooled whole blood extract) was 24.4%. Also, the “Radiochromatogram peak, faeces extract” value in data set [1] (male, human, in vivo) is given as 20.83 %ROI. The same molecule came in with a solubility in “Water solubility” of under 0.01 µg/mL. In the data set with platelet aggregation (Homo sapiens, Platelet, 20 min, PRP, 20 min at 22°C, ADP-initiated aggregation), this molecule registered an IC50 of 25.5 ± 3.5 µM. Moreover, the “Antiplatelet activity relative to zalunfiban” value in the data set on platelet aggregation (from IC50 values) was under 1%.
